Measurements from patent US12702676B2, “Fosfomycin dosing regimens” (priority 2017, dated 2026).
Converted amounts (≈) assume the structure as drawn. Read-outs that look alike come from different tables or passages of the source.

Columns and labels:
[1] = Population PK analysis of ZTI-01, pooled Phase 1 healthy subjects and Phase 2/3 cUTI/AP patients; assay type: in vivo, human; settings: for Baseline CLcr50 / Hill coefficient: CL model
Text: Methods: Two clinical studies have been conducted as part of the development of ZTI-01: a Phase 1 study in healthy subjects (ZTI-01-NIH13-0064) and a Phase 2/3 study in hospitalized patients with complicated urinary tract infections (ZTI-01-200). A PPK model, originally developed using Phase 1 data and an empirical relationship between FOS clearance (CLt) and creatinine clearance (CLcr) [Microbe 2017 Abstr. P1134], was refined using pooled data from healthy subjects and patients with cUTI, including acute pyelonephritis.
The PPK model was developed in NONMEM 7.2. In the Phase 1 study, 28 healthy subjects who received ZTI-01 as single (1 and 8 g infused over 1 hour) IV doses in crossover fashion provided plasma and urine samples for FOS concentration determination over 24 hours. Patients from the Phase 2/3 study (ZEUS, NCT02753946) received ZTI-01 at 6 g every 8 hours, with dosage adjustment for patients with renal impairment (adjusted for CLcr≤50 mL/min). Blood samples for PK (n=5 per patient) were collected on Day 1 and on either Days 3, 4, or 5. Model development involved refinement of the previous CLt:CLcr relationship using the pooled data and a full covariate analysis to identify other patient descriptors associated with the interindividual variability (IIV) in FOS PK. Model qualification included standard goodness-of-fit metrics and visual predictive check plots.
For the PPK model refinement, previous structural population PK model was fit to the pooled Phase 1 and 2/3 data. Covariate analyses were conducted using forward selection and backward elimination. The final model was qualified using visual predictive checks and non-parametric bootstrap procedures. Individual, post-hoc fosfomycin exposures were calculated for each patient using predicted plasma fosfomycin concentration-time data for the first 48 hours of therapy.

[2] = test system: Acinetobacter baumannii-calcoaceticus complex; assay: Case treated with the dosing regimen of the invention; assay type: in vivo; settings: one case
Text: In addition to the above list, it was also observed that the dosing regimen of the present invention provided beneficial results for two uncommon and rarely treated strains. In one case, the dosing regimen of the present invention was used to administer appropriate dosages of fosfomycin, resulting in the eradication of the often resistant, Gram negative Acinetobacter baumannii-calcoaceticus complex.

[3] = Pharmacokinetics in specific populations (hemodialysis, hepatic, demographics); assay type: in vivo, human
Enterobacteriaceae [4] = assay: Non-clinical total-drug % T>RIC targets for efficacy
Text: Emphasis was placed on the assessment of PK-PD target attainment results for AUC:MIC ratio and % T>RIC targets associated with net bacterial stasis.

Enterobacteriaceae [5] = settings: cited from earlier work; for Total-drug AUC:MIC ratio target: Enterobacteriaceae; for Median total-drug AUC:MIC ratio target: neutropenic murine-thigh infection model (Lepak et al.)
[6] = test system: acute pyelonephritis pathogens; settings: Ode et al. study; dosing regimen 8 g bid; cited from earlier work
[7] = test system: Raoultella ornithinolytica; assay: Case treated with the dosing scheme of the invention; assay type: in vivo; settings: one case
[8] = test system: Enterobacteriaceae isolates; settings: 1,021 Enterobacteriaceae isolates collected from US medical centers; cited from earlier work
[9] = final population PK model estimate
[10] = 1-log10 CFU reduction from baseline

C[C@@H]1O[C@@H]1P(=O)(O)O [fosfomycin]
Baseline CLcr50 ([1]; bootstrap mean (N = 200)): 66.3 mL/min/1.73 m^2
Hill coefficient ([1]; bootstrap mean (N = 200)): 2.6
Baseline CLcr50 ([1]; bootstrap median (N = 200)): 65.6 mL/min/1.73 m^2
Hill coefficient ([1]; bootstrap median (N = 200)): 2.59
Baseline CLcr50 [1, 9]: 65 mL/min/1.73 m^2
Hill coefficient [1, 9]: 2.56
CLd1 Coefficient ([1]; bootstrap mean (N = 200)): 4.36 L/h
CLd1 Proportional increase for AP and cUTI patients ([1]; bootstrap mean (N = 200)): 1.28
CLd2 Coefficient ([1]; bootstrap mean (N = 200)): 0.351 L/h
CLe maximum ([1]; bootstrap mean (N = 200)): 9.02 L/h
Covariance between CL and Vc ([1]; bootstrap mean (N = 200)): 0.0707
Covariance between CL and Vp1 ([1]; bootstrap mean (N = 200)): 0.134
Covariance between CLd1 and Vp1 ([1]; bootstrap mean (N = 200)): 0.173
Plasma Residual variability (σ^2) CCV component ([1]; bootstrap mean (N = 200)): 0.0196
Urine Residual variability (σ^2) CCV component ([1]; bootstrap mean (N = 200)): 0.0793
Vc Coefficient ([1]; bootstrap mean (N = 200)): 17.7 L
Vc-BSA power ([1]; bootstrap mean (N = 200)): 1.72
Vp1-BSA power ([1]; bootstrap mean (N = 200)): 2.73
Vp1 Coefficient ([1]; bootstrap mean (N = 200)): 6.11 L
Vp1 Proportional increase for AP and cUTI patients ([1]; bootstrap mean (N = 200)): 0.721
Vp2 Coefficient ([1]; bootstrap mean (N = 200)): 1.74 L
ω^2 for Vc ([1]; bootstrap mean (N = 200)): 0.174
ω^2 for Vp1 ([1]; bootstrap mean (N = 200)): 0.516
ω^2 tor CLd1 ([1]; bootstrap mean (N = 200)): 0.203
CLd1 Coefficient ([1]; bootstrap median (N = 200)): 4.2 L/h
CLd1 Proportional increase for AP and cUTI patients ([1]; bootstrap median (N = 200)): 1.15
CLd2 Coefficient ([1]; bootstrap median (N = 200)): 0.346 L/h
CLe maximum ([1]; bootstrap median (N = 200)): 8.87 L/h
Covariance between CL and Vc ([1]; bootstrap median (N = 200)): 0.0704
Covariance between CL and Vp1 ([1]; bootstrap median (N = 200)): 0.131
Covariance between CLd1 and Vp1 ([1]; bootstrap median (N = 200)): 0.166
Plasma Residual variability (σ^2) CCV component ([1]; bootstrap median (N = 200)): 0.0194
Urine Residual variability (σ^2) CCV component ([1]; bootstrap median (N = 200)): 0.079
Vc Coefficient ([1]; bootstrap median (N = 200)): 17.7 L
Vc-BSA power ([1]; bootstrap median (N = 200)): 1.7
Vp1-BSA power ([1]; bootstrap median (N = 200)): 2.73
Vp1 Coefficient ([1]; bootstrap median (N = 200)): 6.03 L
Vp1 Proportional increase for AP and cUTI patients ([1]; bootstrap median (N = 200)): 0.706
Vp2 Coefficient ([1]; bootstrap median (N = 200)): 1.72 L
ω^2 for Vc ([1]; bootstrap median (N = 200)): 0.172
ω^2 for Vp1 ([1]; bootstrap median (N = 200)): 0.508
ω^2 tor CLd1 ([1]; bootstrap median (N = 200)): 0.199
CLd1 Coefficient [1, 9]: 4.15 L/h
CLd1 Proportional increase for AP and cUTI patients [1, 9]: 1.24
CLd2 Coefficient [1, 9]: 0.349 L/h
CLe maximum [1, 9]: 8.87 L/h
Covariance between CL and Vc [1, 9]: 0.07213
Covariance between CL and Vp1 [1, 9]: 0.1296
Covariance between CLd1 and Vp1 [1, 9]: 0.1853
Plasma Residual variability (σ^2) CCV component [1, 9]: 0.0195
Urine Residual variability (σ^2) CCV component [1, 9]: 0.0795
Vc Coefficient [1, 9]: 17.6 L
Vc-BSA power [1, 9]: 1.76
Vp1-BSA power [1, 9]: 2.72
Vp1 Coefficient [1, 9]: 5.99 L
Vp1 Proportional increase for AP and cUTI patients [1, 9]: 0.729
Vp2 Coefficient [1, 9]: 1.73 L
ω^2 for Vc [1, 9]: 0.175
ω^2 for Vp1 [1, 9]: 0.502
ω^2 tor CLd1 [1, 9]: 0.215
Cmin ([1]; geometric mean, infected Phase 2/3 patients (n = 214), ZTI-01-200, population PK model fit): 30.0 µg/mL
Cmax ([1]; human, in vivo, 6 g, geometric mean, infected Phase 2/3 patients (n = 214), ZTI-01-200, population PK model fit): 364 µg/mL
clearance ([1]; human, in vivo, 6 g, geometric mean, infected Phase 2/3 patients (n = 214), ZTI-01-200, population PK model fit, read-out: CL (converted)): 99.7 mL/min
Vd ([1]; human, in vivo, 6 g, geometric mean, infected Phase 2/3 patients (n = 214), ZTI-01-200, population PK model fit, read-out: VSS): 30.9 L
half-life ([1]; human, in vivo, 6 g, geometric mean, infected Phase 2/3 patients (n = 214), ZTI-01-200, population PK model fit, read-out: t1/2, α (converted)): 0.402 h
half-life ([1]; human, in vivo, 6 g, geometric mean, infected Phase 2/3 patients (n = 214), ZTI-01-200, population PK model fit, read-out: t1/2, β (converted)): 2.67 h
half-life ([1]; human, in vivo, 6 g, geometric mean, infected Phase 2/3 patients (n = 214), ZTI-01-200, population PK model fit, read-out: t1/2, γ (converted)): 4.99 h
AUC(0-t) ([1]; human, in vivo, 6 g, geometric mean, infected Phase 2/3 patients (n = 214), ZTI-01-200, doses by baseline renal function, population PK model fit, read-out: AUC0-24): 2490 µg·h/mL
clearance ([1]; human, in vivo, bootstrap mean (N = 200), read-out: Non-renal CL (converted)): 27 mL/min
clearance ([1]; human, in vivo, bootstrap median (N = 200), read-out: Non-renal CL (converted)): 27.2 mL/min
clearance ([1]; human, in vivo, final population PK model estimate, read-out: Non-renal CL (converted)): 26.8 mL/min
outcome against Acinetobacter baumannii-calcoaceticus complex [2]: eradication
fosfomycin dose removed by hemodialysis ([3]; administered prior to hemodialysis in patients on periodic or chronic hemodialysis): 61-79%
differences in pharmacokinetics based on sex, body weight/body surface area, race/ethnicity or age ([3]; age 18 to 89 years, adjusted for renal function): No clinically significant differences
metabolism through the liver ([3]; in vivo): not metabolized through the liver
Total-drug % T > RIC target (Enterobacteriaceae [4]; [10]): 20.9%
Total-drug % T > RIC target (Enterobacteriaceae [4]; 2-log10 CFU reduction from baseline): 32.8%
Total-drug % T > RIC target (Enterobacteriaceae [4]; Net bacterial stasis): 11.9%
Total-drug AUC:MIC ratio target (Enterobacteriaceae [5]; [10]): 41.6
Median total-drug AUC:MIC ratio target (Enterobacteriaceae [5]; 1 log10 CFU reduction from baseline): 41.6
Total-drug AUC:MIC ratio target (Enterobacteriaceae [5]; Net bacterial stasis): 19.1
Median total-drug AUC:MIC ratio target (Enterobacteriaceae [5]; Net bacterial stasis): 19.1
effective (patients with AP) [6]: 44%
outcome against Raoultella ornithinolytica [7]: successfully eradicated
MIC50 [8]: 4 µg/mL (≈ 29 µM)
MIC90 [8]: 16 µg/mL (≈ 116 µM)
